Test systems include HT-29; HCT-116; M14; K562; SR; HOP-62; SK-MEL-2; Hs-578T; NCI-H460; DLD-1; SF-539; UACC-62; SK-OV-3; A549; SN12C; CCRF-CEM; Malme-3M; EKVX; MDA-MB-435; RXF 393.
Common to all, as to experiment: NCI anticancer screen, dose series, 48 h

The structures appear in SMILES notation.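 How tested: cells in 96-well plates exposed to compound for 48 hours at five concentrations. GI50 = concentration required for 50% inhibition of growth.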 The source made the active and inactive calls. Rule as the data show it: active = GI50 up to about 1.1 µM and inactive = higher.

As to `Cc1ccc(C(=O)N(C2CCCCC2)C2CCCCC2)cc1/N=N/N(C)C`, the GI50 in the assay on HT-29 is 6.08 µM (inactive); with HCT-116, 5.51 µM (inactive); in the assay with M14 it was 17.6 µM (inactive); with K562 it was 8.28 µM (inactive); with SR it was 18.2 µM (inactive); in the assay with HOP-62, 12.3 µM (inactive). Further, the GI50 with SK-MEL-2 is 2.76 µM (inactive); in the assay with Hs-578T, 21.3 µM (inactive); with NCI-H460, 15.1 µM (inactive); with DLD-1 it was 14.7 µM (inactive); in the assay with SF-539, 19.5 µM (inactive); in the assay on UACC-62, 7.78 µM (inactive). Also, the GI50 was 17.8 µM (inactive) with SK-OV-3; 13.7 µM (inactive) in the assay with A549; 15.4 µM (inactive) with SN12C; 14.9 µM (inactive) with CCRF-CEM; 16.2 µM (inactive) with Malme-3M; 16.3 µM (inactive) in the assay on EKVX. Besides, in the assay on MDA-MB-435, the GI50 is 16.2 µM (inactive).

For `O=C(N[C@H](CO)[C@H](O)c1ccc([N+](=O)[O-])cc1)C(Cl)Cl` [CHLORAMPHENICOL], the GI50 with HT-29, in the assay on HCT-116, in the assay with M14, in the assay on K562, with SR and in the assay with HOP-62 was > 100 µM (inactive) in each case. For the same compound, the GI50 with RXF 393, in the assay with SK-MEL-2, in the assay with NCI-H460, in the assay on DLD-1, in the assay on SF-539 and with UACC-62 was > 100 µM (inactive) throughout. The GI50 with SK-OV-3, in the assay on A549, with SN12C, in the assay with CCRF-CEM, in the assay with Malme-3M and with EKVX was > 100 µM (inactive) throughout. Moreover, the GI50 in the assay on MDA-MB-435 is > 100 µM (inactive).

Take `CN(C)/N=N/c1[nH]cnc1C(N)=O` [DACARBAZINE]: the GI50 in the assay with HT-29 was 87.7 µM (inactive); in the assay with HCT-116 it was 38.5 µM (inactive); in the assay with M14 it was 27.2 µM (inactive); in the assay on K562, 16 µM (inactive); with SR it was 18.9 µM (inactive); in the assay on HOP-62 it was 24.5 µM (inactive). Besides, the GI50 in the assay with RXF 393 was 82.8 µM (inactive); in the assay with SK-MEL-2, 9.82 µM (inactive); with Hs-578T, 63 µM (inactive); in the assay on NCI-H460, 49.5 µM (inactive); in the assay with DLD-1, 56.9 µM (inactive); in the assay with SF-539, 65.6 µM (inactive). Besides, the GI50 in the assay on UACC-62 was 35.3 µM (inactive); with SK-OV-3, 20.6 µM (inactive); in the assay with A549, 96.2 µM (inactive); with SN12C, 78.7 µM (inactive); in the assay with CCRF-CEM, 11.6 µM (inactive); in the assay on Malme-3M it was 41.5 µM (inactive). For the same compound, in the assay on MDA-MB-435, the GI50 is 84.5 µM (inactive).

Take `CCN1C(=O)C/C(=C\C(C)=O)Nc2ccccc21`: the GI50 in the assay with HT-29, in the assay on HCT-116, with M14, in the assay on K562, in the assay with SR and with HOP-62 was > 100 µM (inactive) in each case. Moreover, the GI50 was > 100 µM (inactive) with RXF 393; > 100 µM (inactive) in the assay with SK-MEL-2; > 100 µM (inactive) in the assay on NCI-H460; 18.9 µM (inactive) in the assay on DLD-1; > 100 µM (inactive) in the assay with SF-539; > 100 µM (inactive) in the assay on UACC-62. In addition, the GI50 was > 100 µM (inactive) in the assay on SK-OV-3; > 100 µM (inactive) in the assay with A549; 0.166 µM (active) in the assay with SN12C; > 100 µM (inactive) in the assay on CCRF-CEM; > 100 µM (inactive) with Malme-3M; > 100 µM (inactive) in the assay with EKVX.

Turning to `Cc1ccc(-c2c(N)nc(NC#N)nc2CCC(=O)Nc2ccccc2[N+](=O)[O-])cc1`, the GI50 in the assay on HT-29, in the assay with HCT-116, in the assay on M14, in the assay on K562, in the assay on SR and in the assay with HOP-62 was > 100 µM (inactive) in each case. Besides, the GI50 in the assay on RXF 393, in the assay on SK-MEL-2, in the assay on NCI-H460, in the assay with DLD-1, with SF-539 and in the assay with UACC-62 was > 100 µM (inactive) throughout. Also, the GI50 in the assay with SK-OV-3, in the assay with A549, with SN12C, with CCRF-CEM, with Malme-3M and in the assay with EKVX was > 100 µM (inactive) throughout.

Regarding `CCOC(=O)N[C@H]1CCc2cc(O)c(OC)c(OC)c2-c2ccc(SC)c(=O)cc21`, the GI50 is < 0.0135 µM (active) in the assay with HT-29; < 0.0138 µM (active) in the assay with HCT-116; < 0.01 µM (active) in the assay with M14; 0.0136 µM (active) in the assay with K562; 0.0345 µM (active) in the assay on SR; 0.0386 µM (active) with HOP-62. Also, the GI50 in the assay with RXF 393 is < 0.01 µM (active); in the assay with SK-MEL-2, < 0.0149 µM (active); in the assay with NCI-H460 it was 0.0172 µM (active); in the assay with DLD-1, 0.0351 µM (active); in the assay on SF-539 it was 0.0137 µM (active); in the assay on UACC-62, < 0.0144 µM (active). The GI50 is 0.24 µM (active) with SK-OV-3; 0.0289 µM (active) with A549; 0.046 µM (active) in the assay with SN12C; < 0.0139 µM (active) in the assay with CCRF-CEM; 0.0111 µM (active) in the assay with Malme-3M; 0.483 µM (active) with EKVX.

Take `O=C(O)c1ccc(/N=N/c2cc(S(=O)(=O)O)c3cccnc3c2O)cc1`: the GI50 in the assay with HT-29, with HCT-116, with K562, in the assay with SR, in the assay with HOP-62 and with RXF 393 was > 100 µM (inactive) throughout. Moreover, the GI50 with SK-MEL-2 was > 100 µM (inactive); in the assay with NCI-H460 it was > 100 µM (inactive); with DLD-1 it was 63.4 µM (inactive); in the assay on SF-539, > 100 µM (inactive); in the assay on SK-OV-3, > 100 µM (inactive); with A549, > 100 µM (inactive). The GI50 in the assay on SN12C, with Malme-3M and with EKVX was > 100 µM (inactive) in each case.

Regarding `FC(F)(F)c1ccccc1C1SCc2nc3ccccc3n21` (stereo unspecified), the GI50 is 33.8 µM (inactive) with HT-29; 39.1 µM (inactive) in the assay with HCT-116; 16.2 µM (inactive) with K562; 27.9 µM (inactive) in the assay on SR; 91.8 µM (inactive) in the assay with RXF 393; 99.3 µM (inactive) with SK-MEL-2. For the same compound, the GI50 in the assay with DLD-1 is 52.2 µM (inactive); in the assay on SF-539, 85.7 µM (inactive); in the assay on UACC-62 it was 22.5 µM (inactive); with SK-OV-3 it was 60.7 µM (inactive); in the assay with A549, 41.6 µM (inactive); with SN12C, 31.6 µM (inactive). Besides, the GI50 is 27.4 µM (inactive) with CCRF-CEM, 25.4 µM (inactive) with Malme-3M and 41.1 µM (inactive) with EKVX.

Turning to `COc1cc2ccc(CC(=O)O)cc2cc1OC`, the GI50 in the assay with HT-29, in the assay with HCT-116, in the assay on M14, in the assay with K562, with SR and in the assay with HOP-62 was > 100 µM (inactive) each time. Also, the GI50 in the assay on RXF 393, in the assay on SK-MEL-2, in the assay on DLD-1, in the assay with UACC-62, in the assay with SK-OV-3 and in the assay on A549 was > 100 µM (inactive) throughout. Further, the GI50 in the assay on SN12C, in the assay on CCRF-CEM, with Malme-3M and in the assay on EKVX was > 100 µM (inactive) each time.

Take `CN1CCN(CCSC2Cc3cc(Cl)ccc3Sc3ccccc32)CC1` (stereo unspecified): the GI50 is 1.63 µM (inactive) with HT-29; 5.69 µM (inactive) with HCT-116; 1.91 µM (inactive) in the assay on M14; 1.71 µM (inactive) in the assay on K562; 5.07 µM (inactive) with SR; 12.7 µM (inactive) with HOP-62. The GI50 with RXF 393 was 4.19 µM (inactive); in the assay on SK-MEL-2, 1.86 µM (inactive); with NCI-H460 it was 4.95 µM (inactive); in the assay with DLD-1, 3.7 µM (inactive); with SF-539 it was 3.15 µM (inactive); in the assay on UACC-62, 1.91 µM (inactive). Further, the GI50 was 16.7 µM (inactive) with SK-OV-3; 6.05 µM (inactive) with A549; 9.12 µM (inactive) with SN12C; 2.45 µM (inactive) with Malme-3M; 15.1 µM (inactive) with EKVX.

`CCCCOC(=O)NC(=O)c1cn(CCSCCOC(=O)NCCCCCCNC(=O)OCCSCCn2cc(C(=O)NC(=O)OCCCC)c(=O)[nH]c2=O)c(=O)[nH]c1=O`: the GI50 in the assay with HT-29 is > 100 µM (inactive); with HCT-116 it was 73.8 µM (inactive); with M14 it was 58.9 µM (inactive); with K562, > 100 µM (inactive); in the assay with SR, 54.6 µM (inactive); in the assay on HOP-62, 44.6 µM (inactive). In addition, the GI50 with RXF 393 was 22.5 µM (inactive); in the assay with SK-MEL-2, 56.9 µM (inactive); in the assay with NCI-H460, > 100 µM (inactive); in the assay with DLD-1, > 100 µM (inactive); with SF-539, > 100 µM (inactive); in the assay with UACC-62, 41.5 µM (inactive). The GI50 with SK-OV-3 was 30.1 µM (inactive); with A549 it was > 100 µM (inactive); in the assay with SN12C it was > 100 µM (inactive); with Malme-3M it was 29.7 µM (inactive); with EKVX, 91.4 µM (inactive).

The values are drawn from ChEMBL document CHEMBL1201862, “PubChem BioAssay data set” (2004).
